This is an account of results in patent publication US10329302B2, “Bicyclic-fused heteroaryl or aryl compounds” (Pfizer Inc., priority 2014, dated 2019).

Like-named read-outs stand apart in the source and are kept apart here.

Assay [1] has as its target human IRAK4 FL (Full Length) (Homo sapiens (Human), UniProt Q9NWZ3). Nature of the assay: IRAK4 Enzymatic DELFIA Assay, Protocol A. In kind it is biochemical.
Assay [2] concerns R848-induced TNFα production by human peripheral blood mononuclear cells (PBMCs). As to the kind of experiment: R848 Induced TNFα in Human PBMC Assay. In kind it is cell-based. The settings on record: Homo sapiens, PBMC, 3 h, read-out: R848-induced TNFa PBMC IC50 (nM).
The mark [3] stands for this setting: human IRAK4 FL, 0.6 mM ATP (KM), read-out: IRAK4 DELFIA Protocol A IC50.

human IRAK4 FL (Full Length), sequence (Q9NWZ3 whole entry): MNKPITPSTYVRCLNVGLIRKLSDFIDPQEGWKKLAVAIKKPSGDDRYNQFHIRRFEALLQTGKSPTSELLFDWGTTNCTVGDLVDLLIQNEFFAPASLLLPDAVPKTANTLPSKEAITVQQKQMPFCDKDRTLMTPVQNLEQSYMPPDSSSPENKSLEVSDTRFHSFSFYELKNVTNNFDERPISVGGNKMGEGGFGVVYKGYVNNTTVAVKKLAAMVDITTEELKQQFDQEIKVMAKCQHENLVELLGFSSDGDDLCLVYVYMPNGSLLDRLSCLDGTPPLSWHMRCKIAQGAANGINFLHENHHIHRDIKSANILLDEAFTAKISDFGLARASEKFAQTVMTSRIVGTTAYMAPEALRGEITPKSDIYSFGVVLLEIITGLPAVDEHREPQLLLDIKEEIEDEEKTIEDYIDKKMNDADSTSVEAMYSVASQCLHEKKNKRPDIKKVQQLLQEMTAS

Take `CC[C@@H]1CC(=O)N[C@@H]1COc1nccc2cc(C(N)=O)c(OC)c(F)c12` [Example 363, 1-{[(2S,3R)-3-ethyl-5-oxopyrrolidin-2-yl]methoxy}-8-fluoro-7-methoxyisoquinoline-6-carboxamide]: the concentration for half-maximal inhibition (IC50) in assay [1] (setting [3]) was 11 nM; in assay [2], 110 nM.
On to `COc1cc2c(OC[C@H]3NC(=O)[C@@H]4[C@@H](C)[C@@H]43)ncc(F)c2cc1C(N)=O` [Example 364, 4-fluoro-7-methoxy-1-{[(1S,2S,5R)-6-methyl-4-oxo-3-azabicyclo[3.1.0]hex-2-yl]methoxy}isoquinoline-6-carboxamide], for which the half-maximal inhibitory concentration (IC50) in assay [1] (setting [3]) is 16 nM; in assay [2], 145 nM.
Take `COc1c(C(N)=O)cc2ccnc(OC[C@H]3NC(=O)[C@@H]4[C@@H](C)[C@@H]43)c2c1F` [Example 365, 8-fluoro-7-methoxy-1-{[(1S,2S,5R)-6-methyl-4-oxo-3-azabicyclo[3.1.0]hex-2-yl]methoxy}isoquinoline-6-carboxamide]: the half-inhibitory concentration (IC50) in assay [1] (setting [3]) turned out to be 187 nM; in assay [2], 724 nM.
Regarding `COc1cc2c(OC[C@H]3NC(=O)C[C@H]3CF)nccc2cc1C(N)=O` [Example 366, 1-{[(2S,3R)-3-(fluoromethyl)-5-oxopyrrolidin-2-yl]methoxy}-7-methoxyisoquinoline-6-carboxamide], the half-inhibitory concentration (IC50) in assay [1] turned out to be 6.1 nM; in assay [2], 91 nM.
Turning to `COc1cc2c(OC[C@H]3NC(=O)[C@@H](F)[C@H]3CF)nccc2cc1C(N)=O` [Example 367, 1-{[(2S,3R,4S)-4-fluoro-3-(fluoromethyl)-5-oxopyrrolidin-2-yl]methoxy}-7-methoxyisoquinoline-6-carboxamide], the results for the concentration for half-maximal inhibition (IC50) in assay [1] (setting [3]) and in assay [2] were 0.4 nM and 14 nM, respectively.
In the case of `COc1cc2c(OC[C@H]3NC(=O)[C@@H](F)[C@H]3C3CC3)nccc2cc1C(N)=O` [Example 368, 1-{[(2S,3S,4S)-3-cyclopropyl-4-fluoro-5-oxopyrrolidin-2-yl]methoxy}-7-methoxyisoquinoline-6-carboxamide], the half-inhibitory concentration (IC50) in assay [1] (setting [3]) is 0.3 nM; in assay [2] it was 10 nM.
Take `COc1cc2c(OC[C@H]3NC(=O)[C@H](F)[C@H]3C3CC3)nccc2cc1C(N)=O` [Example 369, 1-{[(2S,3S,4R)-3-cyclopropyl-4-fluoro-5-oxopyrrolidin-2-yl]methoxy}-7-methoxyisoquinoline-6-carboxamide]: the results for the IC50 in assay [1] (setting [3]) and in assay [2] were 3.7 nM and 45 nM, respectively.
`COc1cc2c(OC[C@H]3NC(=O)[C@@H](F)[C@H]3CCF)nccc2cc1C(N)=O` [Example 370, 1-{[(2S,3S,4S)-4-fluoro-3-(2-fluoroethyl)-5-oxopyrrolidin-2-yl]methoxy}-7-methoxyisoquinoline-6-carboxamide]: the IC50 stood at 0.1 nM in assay [1] (setting [3]) and 3.7 nM in assay [2].
For the molecule `CC(C)Oc1cc2c(OC[C@@H]3CCC(=O)N3)ncc(-c3cn(C)cn3)c2cc1C(N)=O` [Example 371, 4-(1-methyl-1H-imidazol-4-yl)-1-{[(2S)-5-oxopyrrolidin-2-yl]methoxy}-7-(propan-2-yloxy)isoquinoline-6-carboxamide], the IC50 amounted to 7 nM in assay [1] (setting [3]) and 604 nM in assay [2].
With `Cc1nc(-c2cnc(OC[C@@H]3CCC(=O)N3)c3cc(OC(C)C)c(C(N)=O)cc23)cn1C` [Example 372, 4-(1,2-dimethyl-1H-imidazol-4-yl)-1-{[(2S)-5-oxopyrrolidin-2-yl]methoxy}-7-(propan-2-yloxy)isoquinoline-6-carboxamide], the 50% inhibitory concentration (IC50) is 11 nM in assay [1] (setting [3]) and 649 nM in assay [2].
`Cc1nc(-c2cnc(OC[C@@H]3CCC(=O)N3)c3cc(OC(C)C)c(C(N)=O)cc23)c[nH]1` [Example 373, 4-(2-methyl-1H-imidazol-4-yl)-1-{[(2S)-5-oxopyrrolidin-2-yl]methoxy}-7-(propan-2-yloxy)isoquinoline-6-carboxamide]: the IC50 came out at 35 nM in assay [1] (setting [3]) and 6160 nM in assay [2].

The IC50 is the concentration at which inhibition is half-maximal.
